Test results published in patent US8802597B2, “Herbicidal pyrimidines” (E I du Pont de Nemours and Company, priority 2003, dated 2014).
Where two headings read alike, the source gives them in different places.

Key:
[1] = test system: wheat (TRZAW; Triticum aestivum); assay: Test K postemergence; assay type: in vivo; details: 16 g a.i./ha, 15 days
Experimental: (§1) Seeds of plant species selected from sulfonylurea herbicide-susceptible (SU-susceptible) and sulfonylurea herbicide-resistant (SU-resistant) catchweed bedstraw (GALAP; Galium aparine) and wheat (TRZAW; Triticum aestivum) were treated with postemergence applications of test chemicals formulated in a non-phytotoxic solvent mixture which included a surfactant. Plants were treated at the 2-3 leaf stage and 2 whorl stage for wheat and catchweed bedstraw, respectively. Treated plants and controls were maintained in a controlled growth environment for 15 days after which time all species were compared to controls and visually evaluated. Plant response ratings, summarized in Table K, are based on a scale of 0 to 100 where 0 is no effect and 100 is complete control. A dash (-) response means no test result.

[2] = test system: sulfonylurea herbicide-resistant (SU-resistant) catchweed bedstraw (GALAP; Galium aparine); assay: Test K postemergence; assay type: in vivo; details: 16 g a.i./ha, 15 days
Experimental: as §1

[3] = test system: sulfonylurea herbicide-susceptible (SU-susceptible) catchweed bedstraw (GALAP; Galium aparine); assay: Test K postemergence; assay type: in vivo; details: 16 g a.i./ha, 15 days
Experimental: as §1

[4] = test system: crabgrass (Digitaria sanguinalis); assay: Test A pre/postemergence; assay type: in vivo; details: Digitaria sanguinalis, 240 h, read-out: Plant response rating, Crabgrass; for pest or weed control at 125 g/ha: 125 g ai/ha; for pest or weed control at 500 g/ha: 500 g ai/ha
In short: (§2)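 After planting in loam and sand, species received test chemical as preemergence soil spray; postemergence spray went on 2–10 cm plants at 1–2 leaves at the same time. Evaluation: visual injury, ~10 d, 0 no effect to 100 complete control.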

[5] = test system: morningglory (Ipomoea spp.); assay: Test A pre/postemergence; assay type: in vivo; details: Ipomoea, 240 h, read-out: Plant response rating, Morningglory; for pest or weed control at 125 g/ha: 125 g ai/ha; for pest or weed control at 500 g/ha: 500 g ai/ha
In short: as §2

[6] = test system: redroot pigweed (Amaranthus retroflexus); assay: Test A pre/postemergence; assay type: in vivo; details: Amaranthus retroflexus, 240 h, read-out: Plant response rating, Pigweed; for pest or weed control at 125 g/ha: 125 g ai/ha; for pest or weed control at 500 g/ha: 500 g ai/ha
In short: as §2

[7] = test system: barnyardgrass (Echinochloa crus-galli); assay: Test A pre/postemergence; assay type: in vivo; details: Echinochloa crus-galli, 240 h, read-out: Plant response rating, Barnyardgrass; for pest or weed control at 125 g/ha: 125 g ai/ha; for pest or weed control at 500 g/ha: 500 g ai/ha
In short: as §2

[8] = test system: giant foxtail (Setaria faberi); assay: Test A pre/postemergence; assay type: in vivo; details: Setaria faberi, 240 h, read-out: Plant response rating, Foxtail, Giant; for pest or weed control at 125 g/ha: 125 g ai/ha; for pest or weed control at 500 g/ha: 500 g ai/ha
In short: as §2

[9] = test system: velvetleaf (Abutilon theophrasti); assay: Test A pre/postemergence; assay type: in vivo; details: Abutilon theophrasti, 240 h, read-out: Plant response rating, Velvetleaf; for pest or weed control at 125 g/ha: 125 g ai/ha; for pest or weed control at 500 g/ha: 500 g ai/ha
In short: as §2

[10] = post-emergence, Postemergence, 0 to 100 scale (0 no effect, 100 complete control)
[11] = pre-emergence, Preemergence, 0 to 100 scale where 0 is no effect and 100 is complete control, approximately ten days

| melting point | SMILES | pest or weed control at 125 g/ha [4, 10] [%] | pest or weed control at 500 g/ha [4, 10] [%] | pest or weed control at 125 g/ha [4, 11] [%] | pest or weed control at 500 g/ha [4, 11] [%] | pest or weed control at 125 g/ha [5, 10] [%] | pest or weed control at 500 g/ha [5, 10] [%] | pest or weed control at 125 g/ha [5, 11] [%] | pest or weed control at 500 g/ha [5, 11] [%] | pest or weed control at 125 g/ha [6, 10] [%] | pest or weed control at 500 g/ha [6, 10] [%] | pest or weed control at 125 g/ha [6, 11] [%] | pest or weed control at 500 g/ha [6, 11] [%] | pest or weed control at 125 g/ha [7, 10] [%] | pest or weed control at 500 g/ha [7, 10] [%] | pest or weed control at 125 g/ha [7, 11] [%] | pest or weed control at 500 g/ha [7, 11] [%] | pest or weed control at 125 g/ha [8, 10] [%] | pest or weed control at 500 g/ha [8, 10] [%] | pest or weed control at 125 g/ha [8, 11] [%] | further results |
| --- | --- | --- | --- | --- | --- | --- | --- | --- | --- | --- | --- | --- | --- | --- | --- | --- | --- | --- | --- | --- | --- |
|  | COc1nc(C)nc(NC(=O)NS(=O)(=O)c2ccccc2Cl)n1 [Chlorsulfuron, chlorsulfuron, reference compound] |  |  |  |  |  |  |  |  |  |  |  |  |  |  |  |  |  |  |  | Plant response rating (0 to 100 scale) [1]: 20; Plant response rating (0 to 100 scale) [2]: 5; Plant response rating (0 to 100 scale) [3]: 100 |
| 232 to 236 °C | NC(=O)c1nc(C2CC2)nc(N)c1Cl [Compound 85] | 0 | 0 | 0 | 5 | 20 | 75 | 0 | 20 | 75 | 90 | 50 | 60 | 0 | 0 | 0 | 0 | 0 | 0 | 0 | pest or weed control at 500 g/ha [8, 11]: 0%; pest or weed control at 125 g/ha [9, 10]: 25%; pest or weed control at 500 g/ha [9, 10]: 60%; pest or weed control at 125 g/ha [9, 11]: 0%; pest or weed control at 500 g/ha [9, 11]: 10% |
| 102 to 103 °C | CCOC(=O)c1nc(C(C)C)nc(N)c1Cl [Compound 108] | 0 | 0 | 0 | 20 | 70 | 90 | 0 | 90 | 50 | 85 | 55 | 75 | 0 | 5 | 10 | 15 | 0 | 10 | 0 | pest or weed control at 500 g/ha [8, 11]: 0%; pest or weed control at 125 g/ha [9, 10]: 35%; pest or weed control at 500 g/ha [9, 10]: 65%; pest or weed control at 125 g/ha [9, 11]: 10%; pest or weed control at 500 g/ha [9, 11]: 50% |
| 100 to 104 °C (dec.) | COC(=O)c1nc(C(C)C)nc(N)c1Cl [Compound 110] | 0 | 10 | 0 | 15 | 70 | 85 | 0 | 90 | 55 | 85 | 40 | 65 | 0 | 10 | 0 | 15 | 0 | 5 | 0 | pest or weed control at 500 g/ha [8, 11]: 0%; pest or weed control at 125 g/ha [9, 10]: 40%; pest or weed control at 500 g/ha [9, 10]: 65%; pest or weed control at 125 g/ha [9, 11]: 25%; pest or weed control at 500 g/ha [9, 11]: 35% |
